Earlier results as cited in US20170112865A1, “TREATMENT FOR MELANOMA” (The Board of Regents of the University of Texas System, priority 2014, published 2017).

Experiments:
melanoma = details: at 5 years
[1] = test system: BRAF V600E mutation-positive advanced melanoma; details: human, in vivo
[2] = in vivo
[3] = in vivo; remark: listed apart in the source
[4] = test system: BRAFV600E/k mutant advanced or malignant melanoma

Compound: interferon
- increase in survival (melanoma): 3%

Compound: CC(C)(C)c1nc(-c2cccc(NS(=O)(=O)c3c(F)cccc3F)c2F)c(-c2ccnc(N)n2)s1 [dabrafinib, Dabrafenib]
- time within which resistance occurs [1]: 6 to 7 months

Compound: C[C@H]1O[C@@H](O[C@H]2[C@@H](O)C[C@H](O[C@H]3[C@@H](O)C[C@H](O[C@H]4CC[C@@]5(C)[C@H](CC[C@@H]6[C@@H]5C[C@@H](O)[C@]5(C)[C@@H](C7=CC(=O)OC7)CC[C@]65O)C4)O[C@@H]3C)O[C@@H]2C)C[C@H](O)[C@@H]1O [digoxin, Digoxin]
- half-life [2]: about 36 hours
- plasma concentration at which adverse effects are rare [3]: < 0.8 ng/mL

Compound: CC(=O)Nc1cccc(-n2c(=O)n(C3CC3)c(=O)c3c(Nc4ccc(I)cc4F)n(C)c(=O)c(C)c32)c1 [Trametinib]
- Grade 3 adverse effect: hypertension ([4]; Trametinib arm): 12%
- Grade 3 adverse effect: rash ([4]; Trametinib arm): 7%
- most frequent adverse events ([4]; in vivo): skin rash, diarrhea, edema, hypertension, fatigue
